Assay results reported in patent EP0067666A1, “Salts of antimicrobial naphthyridine and quinoline compounds and their production” (priority 1981, dated 1982).
Marks after values point to notes of the source that are not given here.

Experiments:
[1] = Solubility screening procedure (concentration and pH of filtrate); assay type: physicochemical; details: for Conc. of CPD A: compound A + equimolar acid; for Conc. of CPD A / Conc. of CPD B: amino acid or base in deionized water, room temperature, filtrate, UV assay; for pH of Solution: pH of the filtrate; for Conc. of CPD B: compound B + equimolar acid
Procedure: (§1) The amount of Compound A or Compound B calculated for selected concentrations was weighed into volumetric flasks. Equimolar quantities of combining acid, amino acid, or base were added either as solutions or in dry form. Deionized water was added to bring the volume to that desired for the preselected concentrations.. All flasks were sonicated for 15 minutes, allowed to stand at room temperature for 30 minutes, then filtered through a fine frit sintered glass funnel. After the pH of the filtrate was taken, suitable dilutions were made into 0.1N HCl for ultraviolet spectrophotometric assay of concentration. Ten fold dilutions of the original filtrates were made into standard I.V. solutions.

[2] = 10x dilution of soluble forms with standard IV solutions (pH, precipitate); assay type: physicochemical; details: for Solution 1 ppt 24 hr / Solution 3 ppt 24 hr / Solution 2 ppt 24 hr / Solution 4 ppt 24 hr: precipitate at 24 hr; for Concen. of Cpd A: undiluted solution used for the 10x dilutions
Procedure: as §1

[3] = Cpd A salt solution diluted 10x with 0.9% NaCl
[4] = Cpd A salt solution diluted 10x with 5% Dextrose
[5] = Cpd A salt solution diluted 10x with 5% Dextrose + 0.9% NaCl
[6] = Cpd A salt solution diluted 10x with Lactated Ringer's Solution
[7] = concentrated Cpd B solution (155-221 mg/ml) diluted 10x with 0.9% NaCl

Structure (SMILES) | Conc. of CPD A [1] | pH of Solution ([1]; CPD A solutions) | Conc. of CPD B [1] | pH of Solution ([1]; CPD B solutions) | also measured
CCn1cc(C(=O)O)c(=O)c2cc(F)c(N3CCNCC3)cc21 [A Oxalic] | 19800 µg/mL | 2.14 | – | – | –
CCn1cc(C(=O)O)c(=O)c2cc(F)c(N3CCNCC3)cc21 [A Acetic] | 235000 µg/mL | 5.3 | – | – | Solution 1 pH dil [2, 3]: 5.4; Solution 1 ppt 24 hr [2, 3]: no; Solution 2 pH dil [2, 4]: 5.0; Solution 3 pH dil [2, 5]: 5.3; Solution 3 ppt 24 hr [2, 5]: no; Solution 2 ppt 24 hr [2, 4]: no; Solution 4 pH dil [2, 6]: 5.3; Solution 4 ppt 24 hr [2, 6]: no; pH of Solut. ([2]; undiluted Cpd A solution): 5.3; Concen. of Cpd A [2]: 235000 µg/mL
CCn1cc(C(=O)O)c(=O)c2cc(F)c(N3CCNCC3)nc21 [B L-Arginine] | – | – | 6700 µg/mL | 9.7 | –
CCn1cc(C(=O)O)c(=O)c2cc(F)c(N3CCNCC3)cc21 [A Isethionic] | 175000 µg/mL | 1.35 | – | – | Solution 1 pH dil [2, 3]: 2.18; Solution 1 ppt 24 hr [2, 3]: no; Solution 2 pH dil [2, 4]: 2.27; Solution 3 pH dil [2, 5]: 2.08; Solution 3 ppt 24 hr [2, 5]: no; Solution 2 ppt 24 hr [2, 4]: no; Solution 4 pH dil [2, 6]: 3.70; Solution 4 ppt 24 hr [2, 6]: no; pH of Solut. ([2]; undiluted Cpd A solution): 1.35; Concen. of Cpd A [2]: 175000 µg/mL
CCn1cc(C(=O)O)c(=O)c2cc(F)c(N3CCNCC3)cc21 [A L-Lysine] | 4200 µg/mL | 9.5 | – | – | –
CCn1cc(C(=O)O)c(=O)c2cc(F)c(N3CCNCC3)nc21 [B Glycine] | – | – | 1200 µg/mL | 6.87 | –
CCn1cc(C(=O)O)c(=O)c2cc(F)c(N3CCNCC3)nc21 [B Acetic] | – | – | 195000 µg/mL | 4.97^c | Solution 2 pH dil ([2]; concentrated Cpd B solution (154-221 mg/ml) diluted 10x with 5% Dextrose): 5.6; Solution 3 pH dil ([2]; concentrated Cpd B solution (154-221 mg/ml) diluted 10x with 5% Dextrose + 0.9% NaCl): 5.4; Solution 4 pH dil ([2]; concentrated Cpd B solution (154-221 mg/ml) diluted 10x with Lactated Ringer's Solution): 5.3; Solution 1 pH dil [2, 7]: 5.2; Solution 1 ppt 4 hr ([2]; concentrated Cpd B solution (155-221 mg/ml) diluted 10x with 0.9% NaCl, precipitate at 4 hr): yes; Solution 1 ppt 24 hr [2, 7]: yes; Solution 3 ppt 4 hr ([2]; concentrated Cpd B solution diluted 10x with 5% Dextrose + 0.9% NaCl, precipitate at 4 hr): yes; Solution 3 ppt 24 hr ([2]; concentrated Cpd B solution diluted 10x with 5% Dextrose + 0.9% NaCl): yes; Solution 2 ppt 4 hr ([2]; concentrated Cpd B solution diluted 10x with 5% Dextrose, precipitate at 4 hr): slight; Solution 2 ppt 24 hr ([2]; concentrated Cpd B solution diluted 10x with 5% Dextrose): slight; Solution 4 ppt 4 hr ([2]; concentrated Cpd B solution diluted 10x with Lactated Ringer's Solution, precipitate at 4 hr): slight; Solution 4 ppt 24 hr ([2]; concentrated Cpd B solution diluted 10x with Lactated Ringer's Solution): yes; pH of Solut. ([2]; undiluted concentrated Cpd B solution used for the Solution 1 dilution): 4.97; Concen. of Cpd B ([2]; undiluted concentrated solution (at least 155 mg/ml) used for the Solution 1 dilution (for most salts for all four solutions)): 195000 µg/mL
CCn1cc(C(=O)O)c(=O)c2cc(F)c(N3CCNCC3)nc21 [B Tartaric] | – | – | 7700 µg/mL | 3.46 | –
CCn1cc(C(=O)O)c(=O)c2cc(F)c(N3CCNCC3)nc21 [B L-Proline] | – | – | 1100 µg/mL | 6.92 | –
CCn1cc(C(=O)O)c(=O)c2cc(F)c(N3CCNCC3)nc21 [B Maleic] | – | – | 7750 µg/mL | 2.60 | –
CCn1cc(C(=O)O)c(=O)c2cc(F)c(N3CCNCC3)cc21 [A L-Histidine] | 700 µg/mL | 7.4 | – | – | –
CCn1cc(C(=O)O)c(=O)c2cc(F)c(N3CCNCC3)cc21 [A Citric] | 1500 µg/mL | 3.32 | – | – | –
CCn1cc(C(=O)O)c(=O)c2cc(F)c(N3CCNCC3)cc21 [A L-Proline] | 900 µg/mL | 6.28 | – | – | –
CCn1cc(C(=O)O)c(=O)c2cc(F)c(N3CCNCC3)nc21 [B Succinic] | – | – | 75000 µg/mL | 4.45^b | –
CCn1cc(C(=O)O)c(=O)c2cc(F)c(N3CCNCC3)nc21 [B Citric] | – | – | 1300 µg/mL | 3.14 | –
CCn1cc(C(=O)O)c(=O)c2cc(F)c(N3CCNCC3)cc21 [A L-Cysteic] | 166000 µg/mL | 2.92 | – | – | Solution 1 pH dil [2, 3]: 3.17; Solution 1 ppt 24 hr [2, 3]: no; Solution 2 pH dil [2, 4]: 2.82; Solution 3 pH dil [2, 5]: 2.68; Solution 3 ppt 24 hr [2, 5]: no; Solution 2 ppt 24 hr [2, 4]: no; Solution 4 pH dil [2, 6]: 3.70; Solution 4 ppt 24 hr [2, 6]: slight; pH of Solut. ([2]; undiluted Cpd A solution): 2.92; Concen. of Cpd A [2]: 166000 µg/mL
CCn1cc(C(=O)O)c(=O)c2cc(F)c(N3CCNCC3)cc21 [A Galacturonic] | 166000 µg/mL | 5.44 | – | – | –
CCn1cc(C(=O)O)c(=O)c2cc(F)c(N3CCNCC3)cc21 [A Succinic] | 128000 µg/mL | 4.25 | – | – | –

Structure (SMILES) | Conc. of CPD A [1] | pH of Solution ([1]; CPD A solutions) | Conc. of CPD B [1] | pH of Solution ([1]; CPD B solutions) | also measured
CCn1cc(C(=O)O)c(=O)c2cc(F)c(N3CCNCC3)cc21 [A Lactobionic] | 46500 µg/mL | 4.65 | – | – | –
CCn1cc(C(=O)O)c(=O)c2cc(F)c(N3CCNCC3)cc21 [A Sodium Hydroxide] | 131000 µg/mL | 10.0 | – | – | –
CCn1cc(C(=O)O)c(=O)c2cc(F)c(N3CCNCC3)cc21 [A Diethanolamine] | 7500 µg/mL | 9.68 | – | – | –
CCn1cc(C(=O)O)c(=O)c2cc(F)c(N3CCNCC3)nc21 [B Gluconic] | – | – | 168000 µg/mL | 4.6 | –
CCn1cc(C(=O)O)c(=O)c2cc(F)c(N3CCNCC3)cc21 [A Gluconic] | 182000 µg/mL | 4.3 | – | – | –
CCn1cc(C(=O)O)c(=O)c2cc(F)c(N3CCNCC3)nc21 [B L-Histidine] | – | – | 1100 µg/mL | 7.53 | –
CCn1cc(C(=O)O)c(=O)c2cc(F)c(N3CCNCC3)nc21 [B Diethanolamine] | – | – | 4300 µg/mL | 9.7 | –
CCn1cc(C(=O)O)c(=O)c2cc(F)c(N3CCNCC3)nc21 [B Choline] | – | – | 38200 µg/mL | 9.8 | –
CCn1cc(C(=O)O)c(=O)c2cc(F)c(N3CCNCC3)cc21 [A Choline] | 53500 µg/mL | 10.34 | – | – | –
CCn1cc(C(=O)O)c(=O)c2cc(F)c(N3CCNCC3)nc21 [B Oxalic] | – | – | 2800 µg/mL | 1.76^b | –
CCn1cc(C(=O)O)c(=O)c2cc(F)c(N3CCNCC3)cc21 [A L-Leucine] | 900 µg/mL | 6.2 | – | – | –
CCn1cc(C(=O)O)c(=O)c2cc(F)c(N3CCNCC3)nc21 [B Lactobionic] | – | – | 99000 µg/mL | 3.6 ^b | –
CCn1cc(C(=O)O)c(=O)c2cc(F)c(N3CCNCC3)cc21 [A Tartaric] | 3500 µg/mL | 3.02 | – | – | –
CCn1cc(C(=O)O)c(=O)c2cc(F)c(N3CCNCC3)cc21 [A Maleic] | 45100 µg/mL | 2.79 | – | – | –
CCn1cc(C(=O)O)c(=O)c2cc(F)c(N3CCNCC3)cc21 [A D,L-Alanine] | 900 µg/mL | 6.44 | – | – | –
CCn1cc(C(=O)O)c(=O)c2cc(F)c(N3CCNCC3)nc21 [B L-Lysine] | – | – | 4300 µg/mL | 9.4 | –
CCn1cc(C(=O)O)c(=O)c2cc(F)c(N3CCNCC3)cc21 [A L-Arginine] | 11100 µg/mL | 9.8 | – | – | –
